In ChEMBL document CHEMBL2169801, “Development of o-chlorophenyl substituted pyrimidines as exceptionally potent aurora kinase inhibitors” (J Med Chem, 2012):
Values after ≈ are worked out from the molar mass of the structure shown.

assay: physchem; conditions: buffer, pH 7.4

Row | SMILES | solubility [µg/mL]
1 | Oc1cc(Nc2ncc(F)c(Nc3ccccc3Cl)n2)ccc1-c1nnn[nH]1 | 49 (≈ 123 µM)
2 | Clc1ccccc1Nc1ccnc(Nc2ccc(-c3nnn[nH]3)cc2)n1 | 49 (≈ 134 µM)

Next, values leading:

Row | solubility [µg/mL] | SMILES
3 | 49 (≈ 128 µM) | Fc1cnc(Nc2ccc(-c3nnn[nH]3)cc2)nc1Nc1ccccc1Cl
4 | 49 (≈ 123 µM) | Clc1ccccc1Nc1nc(Nc2ccc(-c3nnn[nH]3)cc2)ncc1Cl

assay: not given; conditions: buffer

Row | SMILES | solubility
5 | O=C(O)c1ccc(Nc2nccc(Nc3ccccc3Cl)n2)cc1O | Insoluble
6 | O=C(O)c1ccc(Nc2nccc(Nc3ccccc3F)n2)cc1 | Insoluble

The remaining lines, values ahead:

Row | solubility | SMILES
7 | Insoluble | O=C(O)c1ccc(Nc2ncc(F)c(Nc3ccccc3C(=O)O)n2)cc1
8 | Insoluble | O=C(O)c1ccc(Nc2nccc(Nc3ccccc3Cl)n2)cc1
